Source: the NIST ThermoML archive (doi:10.1016/j.tca.2014.06.026)

Tests used:
[1] = 101 kPa, Liquid; for speed of sound: Frequency=2 MHz, Sing-around technique in a fixed-path interferometer; for viscosity: Oscillating disk viscometry; for mass density: Vibrating tube method
[2] = xn = mol fraction of the nth substance listed; conditions: 101 kPa, Liquid, x1 = 1; for speed of sound: Frequency=2 MHz, Sing-around technique in a fixed-path interferometer; for viscosity: Oscillating disk viscometry; for mass density: Vibrating tube method

CN1CCCC1=O [N-methylpyrrolidone]
[1]
Conditions | mass density [kg/m3] | speed of sound [m/s] | viscosity [mPa·s]
303.15 K | 1023.45 | 1552.8 | 1.511
308.15 K | 1019.34 | 1526.4 | 1.409
313.15 K | 1014.82 | 1501 | 1.332
318.15 K | 1010.06 | 1478 | 1.21

CN1CCCC1=O [N-methylpyrrolidone] + C1=CCCCC1
[2]
Conditions | mass density [kg/m3] | speed of sound [m/s] | viscosity [mPa·s]
303.15 K | 1023.45 | 1552.8 | 1.511
308.15 K | 1019.34 | 1526.4 | 1.409
313.15 K | 1014.82 | 1501 | 1.332
318.15 K | 1010.06 | 1478 | 1.21

NC1CCCCC1 [cyclohexylamine]
[1]
Conditions | mass density [kg/m3] | speed of sound [m/s] | viscosity [mPa·s]
303.15 K | 857.71 | 1397.8 | 1.797
308.15 K | 853.14 | 1379.2 | 1.704
313.15 K | 848.61 | 1360.6 | 1.617
318.15 K | 844.07 | 1342 | 1.506

CN1CCCC1=O [N-methylpyrrolidone] + OC1CCCCC1
[2]
Conditions | mass density [kg/m3] | speed of sound [m/s] | viscosity [mPa·s]
303.15 K | 1023.45 | 1552.8 | 1.511
308.15 K | 1019.34 | 1526.4 | 1.409
313.15 K | 1014.82 | 1501 | 1.332
318.15 K | 1010.06 | 1478 | 1.21

OC1CCCCC1 [cyclohexanol]
[1]
Conditions | mass density [kg/m3] | speed of sound [m/s] | viscosity [mPa·s]
303.15 K | 941.32 | 1443.2 | 41.07
308.15 K | 937.23 | 1419.6 | 27.95
313.15 K | 933.48 | 1395.2 | 16.66
318.15 K | 928.11 | 1370.8 | 8.888

C1=CCCCC1 [cyclohexene]
[1]
Conditions | mass density [kg/m3] | speed of sound [m/s] | viscosity [mPa·s]
303.15 K | 801.81 | 1252.1 | 0.581
308.15 K | 797.25 | 1224.8 | 0.549
313.15 K | 792.61 | 1196.6 | 0.516
318.15 K | 788.02 | 1169.6 | 0.488

CN1CCCC1=O [N-methylpyrrolidone] + NC1CCCCC1
[2]
Conditions | mass density [kg/m3] | speed of sound [m/s] | viscosity [mPa·s]
303.15 K | 1023.45 | 1552.8 | 1.511
308.15 K | 1019.34 | 1526.4 | 1.409
313.15 K | 1014.82 | 1501 | 1.332
318.15 K | 1010.06 | 1478 | 1.21
